# In patent US20240166693A1, “METHODS AND COMPOUNDS FOR MODULATING MYOTONIC DYSTROPY 1” (Design Therapeutics, Inc., priority 2020, published 2024):
# Where two headings read alike, the source gives them in different places.
# System: Myotonic Dystrophy 1 affected patient fibroblasts (Coriell GM04602; 1600 CTG repeats)
# Experiment: DM1 foci reduction assay (CAG10-Cy3 FISH, average foci per nucleus)
# Assay type: cell-based
# Details: Homo sapiens, Fibroblast
# Outline: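 Read-out is mean nuclear foci per well from CAG10-Cy3 FISH (5 nM probe, overnight 37 °C) with DAPI nuclei, 4 fields per well at 20×. Compounds ran 48 h in 8-point, 3-fold series topping at 3 μM on 1600-CTG GM04602 fibroblasts, alongside GM07492 wild-type cells.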
# [1] = 48 h, read-out: Foci Reduction in Fibroblast EC50, 48 h (nM)
# [2] = DM1 fibroblasts, 48 h treatment, 8-point dose response, 3 μM top dose, read-out: Foci Reduction in Fibroblast EC50, 48 h
SMILES,EC50 [1] [nM],EC50 [2] [nM]
CCN(CC)CCCC[C@H](NC(=O)CCCCOCCOCCNC(=O)c1ccc(C(C)(C)C)cc1)C(=O)N[C@@H](CO)C(=O)NCCOCCOCCOCCOCCOCCNC(=O)CCNC(=O)c1nc(NC(=O)c2cc(NC(=O)CCNC(=O)c3nc(NC(=O)CCCNC(=O)c4cc(NC(=O)c5nc(NC(=O)CCNC(=O)c6cc(NC(=O)c7nccn7C)cn6C)cn5C)cn4C)cn3C)cn2C)cn1C [Compound 141],100 to 500,
COc1cccc(C(=O)N2CCN(C(=O)CN(CCOCCOCCOCCOCCOCCNC(=O)CCNC(=O)c3nc(NC(=O)c4cc(NC(=O)CCNC(=O)c5nc(NC(=O)CCCNC(=O)c6cc(NC(=O)c7nc(NC(=O)CCNC(=O)c8cc(NC(=O)c9nccn9C)cn8C)cn7C)cn6C)cn5C)cn4C)cn3C)c3cccc(C)c3)CC2)c1OC [Compound 142],,100 to 500
COc1cccc(C(=O)N2CCN(C(=O)CN(C(=O)COCCOCCOCCOCCOCCNC(=O)CCNC(=O)c3nc(NC(=O)c4cc(NC(=O)CCNC(=O)c5nc(NC(=O)CCCNC(=O)c6cc(NC(=O)c7nc(NC(=O)CCNC(=O)c8cc(NC(=O)c9nccn9C)cn8C)cn7C)cn6C)cn5C)cn4C)cn3C)c3ccc(NC(N)=O)c(C)c3)CC2)c1OC [Compound 143],,> 500
CC(C)CN(CCCC[C@H](NC(=O)COCCOCCNC(=O)c1ccc(C(C)(C)C)cc1)C(=O)N[C@@H](CO)C(=O)NCCOCCOCCOCCOCCOCCNC(=O)CCNC(=O)c1nc(NC(=O)c2cc(NC(=O)CCNC(=O)c3nc(NC(=O)CCCNC(=O)c4cc(NC(=O)c5nc(NC(=O)CCNC(=O)c6cc(NC(=O)c7nccn7C)cn6C)cn5C)cn4C)cn3C)cn2C)cn1C)C1CC2CCC1C2 (stereo partly drawn) [Compound 144],< 100,
CC(C)C[C@H](NC(=O)[C@H](Cc1ccccc1)NC(=O)[C@H](CCCCN(C)C(C)C)NC(=O)[C@@H]1C[C@@H]2CCCC[C@@H]2N1)C(=O)NCCOCCOCCOCCOCCOCCNC(=O)CCNC(=O)c1nc(NC(=O)c2cc(NC(=O)CCNC(=O)c3nc(NC(=O)CCCNC(=O)c4cc(NC(=O)c5nc(NC(=O)CCNC(=O)c6cc(NC(=O)c7nccn7C)cn6C)cn5C)cn4C)cn3C)cn2C)cn1C [Compound 145],100 to 500,
CN(C)[C@H]1CN(C2CCc3cccc(F)c32)C[C@@H]1c1ccc(N2CCN(C(=O)COCCOCCOCCOCCOCCNC(=O)CCNC(=O)c3nc(NC(=O)c4cc(NC(=O)CCNC(=O)c5nc(NC(=O)CCCNC(=O)c6cc(NC(=O)c7nc(NC(=O)CCNC(=O)c8cc(NC(=O)c9nccn9C)cn8C)cn7C)cn6C)cn5C)cn4C)cn3C)CC2)cc1 (stereo partly drawn) [Compound 146],,> 500
CN(C)[C@H]1CN(C2CCc3cccc(F)c32)C[C@@H]1c1ccc(N2CCN(S(=O)(=O)CCOCCOCCOCCOCCOCCNC(=O)CCNC(=O)c3nc(NC(=O)c4cc(NC(=O)CCNC(=O)c5nc(NC(=O)CCCNC(=O)c6cc(NC(=O)c7nc(NC(=O)CCNC(=O)c8cc(NC(=O)c9nccn9C)cn8C)cn7C)cn6C)cn5C)cn4C)cn3C)CC2)cc1 (stereo partly drawn) [Compound 147],,> 500
CC(C)CN(CCCC[C@H](NC(=O)[C@H](CCCN1CCOCC1)NC(=O)[C@@H](NC(=O)[C@H](Cc1ccccc1)NC(=O)c1ccc(C(C)(C)C)cc1)C1CCC1)C(=O)N[C@@H](CO)C(=O)NCCOCCOCCOCCOCCOCCNC(=O)CCNC(=O)c1nc(NC(=O)c2cc(NC(=O)CCNC(=O)c3nc(NC(=O)CCCNC(=O)c4cc(NC(=O)c5nc(NC(=O)CCNC(=O)c6cc(NC(=O)c7nccn7C)cn6C)cn5C)cn4C)cn3C)cn2C)cn1C)C1CC2CCC1C2 (stereo partly drawn) [Compound 148],> 500,
CN(CCCC[C@H](NC(=O)[C@H](CCCN1CCOCC1)NC(=O)[C@@H](NC(=O)[C@H](Cc1ccccc1)NC(=O)c1ccc(C(C)(C)C)cc1)C1CCC1)C(=O)N[C@@H](CO)C(=O)NCCOCCOCCOCCOCCOCCNC(=O)CCNC(=O)c1nc(NC(=O)c2cc(NC(=O)CCNC(=O)c3nc(NC(=O)CCCNC(=O)c4cc(NC(=O)c5nc(NC(=O)CCNC(=O)c6cc(NC(=O)c7nccn7C)cn6C)cn5C)cn4C)cn3C)cn2C)cn1C)C1CC2CCC1C2 (stereo partly drawn) [Compound 149],100 to 500,
CCN(CC)CCCC[C@H](NC(=O)COCCNC(=O)c1cnn(-c2ccc(C(C)(C)C)cc2)c1)C(=O)N[C@@H](CO)C(=O)NCCOCCOCCOCCOCCOCCNC(=O)CCNC(=O)c1nc(NC(=O)c2cc(NC(=O)CCNC(=O)c3nc(NC(=O)CCCNC(=O)c4cc(NC(=O)c5nc(NC(=O)CCNC(=O)c6cc(NC(=O)c7nccn7C)cn6C)cn5C)cn4C)cn3C)cn2C)cn1C [Compound 150],> 500,
CCN(CC)CCCC[C@H](NC(=O)CCCCNC(=O)c1cnn(-c2ccc(C(C)(C)C)cc2)c1)C(=O)N[C@@H](CO)C(=O)NCCOCCOCCOCCOCCOCCNC(=O)CCNC(=O)c1nc(NC(=O)c2cc(NC(=O)CCNC(=O)c3nc(NC(=O)CCCNC(=O)c4cc(NC(=O)c5nc(NC(=O)CCNC(=O)c6cc(NC(=O)c7nccn7C)cn6C)cn5C)cn4C)cn3C)cn2C)cn1C [Compound 151],> 500,
CCN(CC)CCCC[C@H](NC(=O)Cc1nc2cc(CC(=O)Nc3ccc(C(C)(C)C)cc3)cnc2[nH]1)C(=O)N[C@@H](CO)C(=O)NCCOCCOCCOCCOCCOCCNC(=O)CCNC(=O)c1nc(NC(=O)c2cc(NC(=O)CCNC(=O)c3nc(NC(=O)CCCNC(=O)c4cc(NC(=O)c5nc(NC(=O)CCNC(=O)c6cc(NC(=O)c7nccn7C)cn6C)cn5C)cn4C)cn3C)cn2C)cn1C [Compound 152],100 to 500,
CCN(CC)CCCC[C@H](NC(=O)N1CC(c2cnc(CNC(=O)c3ccc(C(C)(C)C)cc3)[nH]2)C1)C(=O)N[C@@H](CO)C(=O)NCCOCCOCCOCCOCCOCCNC(=O)CCNC(=O)c1nc(NC(=O)c2cc(NC(=O)CCNC(=O)c3nc(NC(=O)CCCNC(=O)c4cc(NC(=O)c5nc(NC(=O)CCNC(=O)c6cc(NC(=O)c7nccn7C)cn6C)cn5C)cn4C)cn3C)cn2C)cn1C [Compound 155],100 to 500,
CCN(CC)CCCC[C@H](NC(=O)OC(C)(C)C)C(=O)N[C@@H](CO)C(=O)NCCOCCOCCOCCOCCOCCNC(=O)CCNC(=O)c1nc(NC(=O)c2cc(NC(=O)CCNC(=O)c3nc(NC(=O)CCCNC(=O)c4cc(NC(=O)c5nc(NC(=O)CCNC(=O)c6cc(NC(=O)c7nccn7C)cn6C)cn5C)cn4C)cn3C)cn2C)cn1C [Compound 157],100 to 500,
CCN(CC)CCCCCC(=O)NCC(=O)NCCOCCOCCOCCOCCOCCNC(=O)CCNC(=O)c1nc(NC(=O)c2cc(NC(=O)CCNC(=O)c3nc(NC(=O)CCCNC(=O)c4cc(NC(=O)c5nc(NC(=O)CCNC(=O)c6cc(NC(=O)c7nccn7C)cn6C)cn5C)cn4C)cn3C)cn2C)cn1C [Compound 158],,> 500
COc1c(OCCOCCOCCOCCOCCOCCNC(=O)CCNC(=O)c2nc(NC(=O)c3cc(NC(=O)CCNC(=O)c4nc(NC(=O)CCCNC(=O)c5cc(NC(=O)c6nc(NC(=O)CCNC(=O)c7cc(NC(=O)c8nccn8C)cn7C)cn6C)cn5C)cn4C)cn3C)cn2C)cccc1C(=O)N1CCN(C(=O)COc2cccc(OCCNC(=O)CNC(=O)c3ccc(C(C)(C)C)cc3)c2)CC1 [Compound 159],,100 to 500
CCN(CCN(C)CCOCCOCCOCCOCCOCCNC(=O)CCNC(=O)c1nc(NC(=O)c2cc(NC(=O)CCNC(=O)c3nc(NC(=O)CCCNC(=O)c4cc(NC(=O)c5nc(NC(=O)CCNC(=O)c6cc(NC(=O)c7nccn7C)cn6C)cn5C)cn4C)cn3C)cn2C)cn1C)C(=O)CNCc1cc(C(N)=O)ccn1 [Compound 163],,> 500
CCN(c1cc(-c2ccc(CN3CCN(CCCCCCCNC(=O)CCNC(=O)c4nc(NC(=O)c5cc(NC(=O)CCNC(=O)c6nc(NC(=O)CCCNC(=O)c7cc(NC(=O)c8nc(NC(=O)CCNC(=O)c9cc(NC(=O)c%10nccn%10C)cn9C)cn8C)cn7C)cn6C)cn5C)cn4C)CC3)cc2)cc(C(=O)NCc2c(C)cc(C)[nH]c2=O)c1C)C1CCOCC1 [Compound 164],,> 500
CCN(c1cc(-c2ccc(CN3CCN(CCOCCOCCNC(=O)CCNC(=O)c4nc(NC(=O)c5cc(NC(=O)CCNC(=O)c6nc(NC(=O)CCCNC(=O)c7cc(NC(=O)c8nc(NC(=O)CCNC(=O)c9cc(NC(=O)c%10nccn%10C)cn9C)cn8C)cn7C)cn6C)cn5C)cn4C)CC3)cc2)cc(C(=O)NCc2c(C)cc(C)[nH]c2=O)c1C)C1CCOCC1 [Compound 165],,> 500
CCN(c1cc(-c2ccc(CN3CCN(CCOCCOCCOCCOCCOCCNC(=O)CCNC(=O)c4nc(NC(=O)c5cc(NC(=O)CCNC(=O)c6nc(NC(=O)CCCNC(=O)c7cc(NC(=O)c8nc(NC(=O)CCNC(=O)c9cc(NC(=O)c%10nccn%10C)cn9C)cn8C)cn7C)cn6C)cn5C)cn4C)CC3)cc2)cc(C(=O)NCc2c(C)cc(C)[nH]c2=O)c1C)C1CCOCC1 [Compound 166],,> 500
CCN(c1cc(-c2ccc(CN3CCN(CCOCCOCCOCCOCCOCCOCCOCCOCCOCCOCCNC(=O)CCNC(=O)c4nc(NC(=O)c5cc(NC(=O)CCNC(=O)c6nc(NC(=O)CCCNC(=O)c7cc(NC(=O)c8nc(NC(=O)CCNC(=O)c9cc(NC(=O)c%10nccn%10C)cn9C)cn8C)cn7C)cn6C)cn5C)cn4C)CC3)cc2)cc(C(=O)NCc2c(C)cc(C)[nH]c2=O)c1C)C1CCOCC1 [Compound 167],,> 500
CC(=O)c1cc(-c2ccccc2S(C)(=O)=O)c2cc(OCCOCCOCCNC(=O)CCNC(=O)c3nc(NC(=O)c4cc(NC(=O)CCNC(=O)c5nc(NC(=O)CCCNC(=O)c6cc(NC(=O)c7nc(NC(=O)CCNC(=O)c8cc(NC(=O)c9nccn9C)cn8C)cn7C)cn6C)cn5C)cn4C)cn3C)ccn12 [Compound 168],,> 500
CC(=O)c1cc(-c2ccccc2S(C)(=O)=O)c2cc(OCCOCCOCCOCCOCCOCCNC(=O)CCNC(=O)c3nc(NC(=O)c4cc(NC(=O)CCNC(=O)c5nc(NC(=O)CCCNC(=O)c6cc(NC(=O)c7nc(NC(=O)CCNC(=O)c8cc(NC(=O)c9nccn9C)cn8C)cn7C)cn6C)cn5C)cn4C)cn3C)ccn12 [Compound 169],,> 500
CC(=O)c1cc(-c2ccccc2S(C)(=O)=O)c2cc(OCCOCCOCCOCCOCCOCCOCCOCCOCCOCCOCCNC(=O)CCNC(=O)c3nc(NC(=O)c4cc(NC(=O)CCNC(=O)c5nc(NC(=O)CCCNC(=O)c6cc(NC(=O)c7nc(NC(=O)CCNC(=O)c8cc(NC(=O)c9nccn9C)cn8C)cn7C)cn6C)cn5C)cn4C)cn3C)ccn12 [Compound 170],,> 500
